Read-outs that look alike come from different tables or passages of the source.
How the values were obtained:
human CB1 receptors = human CB1 receptors (Homo sapiens (Human), UniProt P21554); assay: cAMP assay, CHO cells expressing human CB1 receptors; format: cell-based; conditions: CHO cells expressing human CB1, cAMP; read-out: human CB1 EC50
Experimental: (§1) CHO cells expressing human CB1 or CB2 receptors are seeded 17-24 hours prior to the experiment 50.000 cells per well in a black 96 well plate with flat clear bottom (Corning Costar #3904) in DMEM (Invitrogen No. 31331), 1×HT supplement, with 10% fetal calf serum and incubated at 5% CO2 and 37° C. in a humidified incubator. The growth medium was exchanged with Krebs Ringer Bicarbonate buffer with 1 mM IBMX and incubated at 30° C. for 30 min Compounds were added to a final assay volume of 100 μl and incubated for 30 min at 30° C. Using the cAMP-Nano-TRF detection kit the assay (Roche Diagnostics) was stopped by the addition of 50 μl lysis reagent (Tris, NaCl, 1.5% Triton X100, 2.5% NP40, 10% NaN3) and 50 μl detection solutions (20 μM mAb Alexa700-cAMP 1:1, and 48 μM Ruthenium-2-AHA-cAMP) and shaken for 2 h at room temperature. The time-resolved energy transfer is measured by a TRF reader (Evotec Technologies GmbH), equipped with a ND:YAG laser as excitation source. The plate is measured twice with the excitation at 355 nm and at the emission with a delay of 100 ns and a gate of 100 ns, total exposure time 10 s at 730 (bandwidth 30 nm) or 645 nm (bandwidth 75 nm), respectively. The FRET signal is calculated as follows: FRET=T730-Alexa730-P(T645-B645) with P═Ru730-B730/Ru645-B645, where T730 is the test well measured at […], T645 is the test well measured at 645 nm, B730 and B645 are the buffer controls at 730 nm and 645 nm, respectively. cAMP content is determined from the function of a standard curve spanning from 10 μM to 0.13 nM cAMP.
(§2) EC50 values were determined using Activity Base analysis (ID Business Solution, Limited). The EC50 values for a wide range of cannabinoid agonists generated from this assay for reference compounds were in agreement with the values published in the scientific literature.

human CB2 receptors = human CB2 receptors (Homo sapiens (Human), UniProt P34972); assay: cAMP assay, CHO cells expressing human CB2 receptors; format: cell-based
human CB2 receptors, sequence (P34972 whole entry): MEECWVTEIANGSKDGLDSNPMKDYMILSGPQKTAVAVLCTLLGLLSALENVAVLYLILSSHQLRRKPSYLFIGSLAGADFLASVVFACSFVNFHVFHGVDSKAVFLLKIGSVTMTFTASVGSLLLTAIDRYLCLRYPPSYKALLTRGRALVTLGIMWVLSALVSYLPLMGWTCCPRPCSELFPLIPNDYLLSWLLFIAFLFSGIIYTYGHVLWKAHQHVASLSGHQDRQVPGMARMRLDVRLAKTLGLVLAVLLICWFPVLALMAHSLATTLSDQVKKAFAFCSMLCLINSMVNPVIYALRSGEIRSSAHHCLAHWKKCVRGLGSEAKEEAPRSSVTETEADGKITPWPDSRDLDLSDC
Experimental: as §1, §2

[1] = CHO cells expressing human CB2, cAMP, read-out: human CB2 EC50

human CB1 receptors, sequence (P21554 whole entry): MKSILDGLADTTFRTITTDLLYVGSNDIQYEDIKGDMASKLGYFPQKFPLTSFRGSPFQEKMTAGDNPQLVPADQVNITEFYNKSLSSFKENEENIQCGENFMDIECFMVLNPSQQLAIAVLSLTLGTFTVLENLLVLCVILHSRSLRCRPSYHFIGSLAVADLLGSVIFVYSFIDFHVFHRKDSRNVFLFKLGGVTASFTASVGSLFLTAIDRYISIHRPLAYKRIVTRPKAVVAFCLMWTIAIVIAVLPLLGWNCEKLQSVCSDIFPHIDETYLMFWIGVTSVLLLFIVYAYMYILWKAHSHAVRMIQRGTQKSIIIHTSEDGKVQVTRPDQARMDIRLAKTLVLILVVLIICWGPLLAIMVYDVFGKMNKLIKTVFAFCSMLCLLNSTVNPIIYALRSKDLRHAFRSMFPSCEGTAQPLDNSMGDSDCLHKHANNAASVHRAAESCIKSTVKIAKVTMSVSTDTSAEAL

Structure (SMILES)	EC50 (human CB1 receptors) [µM]	EC50 (human CB2 receptors; [1]) [nM]	EC50 (human CB2 receptors) [nM]
Cc1nc(C(NC(=O)c2cccc(-c3ccc(F)c(Cl)c3)n2)C2CC2)no1 (racemic) [Example 232, 6-(3-Chloro-4-fluoro-phenyl)-pyridine-2-carboxylic acid [cyclopropyl-(5-methyl-[1,2,4]oxadiazol-3-yl)-methyl]-amide]	1.63	15	
O=C(N[C@@H](CC1CC1)C(=O)NN1CCC(O)C1)c1ccc(C2CC2)c(OCC2CC2)n1 (single isomer, unassigned; (+)) [Example 379]			26.4
O=C(N[C@@H](CC1CC1)C(=O)NN1CCC(O)C1)c1ccc(C2CC2)c(OCC2CC2)n1 (single isomer, unassigned; (-)) [Example 380]	> 10	584	
COC(=O)C(C)(C)NC(=O)c1cccc(-c2cccc(Cl)c2)n1 [Example 1, Methyl 2-(6-(3-chlorophenyl)picolinamido)-2-methylpropanoate]		68.5	
COC(=O)C(C)(C)NC(=O)c1cccc(-c2ccccc2Cl)n1 [Example 2, Methyl 2-(6-(2-chlorophenyl)picolinamido)-2-methylpropanoate]		57.7	
Cc1nc(C(C)(C)NC(=O)c2cccc(-c3ccc(Cl)cc3)n2)no1 [Example 3, 6-(4-Chloro-phenyl)-pyridine-2-carboxylic acid [1-methyl-1-(5-methyl-[1,2,4]oxadiazol-3-yl)-ethyl]-amide]	> 10	341	
COC(=O)C(C)(C)NC(=O)c1ccc(C)c(OCC(F)(F)F)n1 [Example 4, Methyl 2-methyl-2-(5-methyl-6-(2,2,2-trifluoroethoxy)picolinamido)propanoate]		77.2	
COC(=O)C(C)(C)NC(=O)c1ccc(C2CC2)c(Nc2ccc(Cl)cc2Cl)n1 [Example 5, Methyl 2-(5-cyclopropyl-6-(2,4-dichlorophenylamino)picolinamido)-2-methylpropanoate]		434	
COC(=O)C(C)(C)NC(=O)c1ccc(C)c(Nc2ccc(Cl)cc2Cl)n1 [Example 6, Methyl 2-(6-(2,4-dichlorophenylamino)-5-methylpicolinamido)-2-methylpropanoate]		376	
COC(=O)C(C)(C)NC(=O)c1cccc(C2CCCCC2)n1 [Example 7, 2-[(6-Cyclohexyl-pyridine-2-carbonyl)-amino]-2-methyl-propionic acid methyl ester]		32.1	
CC(C)(NC(=O)c1cccc(-c2cccc(Cl)c2)n1)c1ncco1 [Example 8, 6-(3-Chloro-phenyl)-pyridine-2-carboxylic acid (1-methyl-1-oxazol-2-yl-ethyl)-amide]	> 10	99.6	
COC(=O)C(C)(C)NC(=O)c1ccc(C2CCOCC2)c(OCC2CC2)n1 [Example 9, 2-{[6-Cyclopropylmethoxy-5-(tetrahydro-pyran-4-yl)-pyridine-2-carbonyl]-amino}-2-methyl-propionic acid methyl ester]	> 10	55.8	
Cc1nc(C(C)(C)NC(=O)c2ccc(C3CCOCC3)c(OCC3CC3)n2)no1 [Example 10, 6-Cyclopropylmethoxy-5-(tetrahydro-pyran-4-yl)-pyridine-2-carboxylic acid [1-methyl-1-(5-methyl-[1,2,4]oxadiazol-3-yl)-ethyl]-amide]	> 10	88.3	
O=C(NN1CCCCC1)c1cccc(-c2cccc(Cl)c2)n1 [Example 11, 6-(3-Chloro-phenyl)-pyridine-2-carboxylic acid piperidin-1-ylamide]	> 10	63.6	
CC(C)(NC(=O)c1cccc(-c2cccc(Cl)c2)n1)c1nccs1 [Example 12, 6-(3-Chloro-phenyl)-pyridine-2-carboxylic acid (1-methyl-1-thiazol-2-yl-ethyl)-amide]	> 10	105	
COC(=O)C(C)(C)NC(=O)c1ccc(-c2cc[nH]n2)c(OCC2CC2)n1 [Example 13, 2-{[6-Cyclopropylmethoxy-5-(1H-pyrazol-3-yl)-pyridine-2-carbonyl]-amino}-2-methyl-propionic acid methyl ester]	> 10	426	
CC(C)C[C@@H](CO)NC(=O)c1ccc(N2CCCC2)c(OCC2CC2)n1 [Example 14, 6-Cyclopropylmethoxy-5-pyrrolidin-1-yl-pyridine-2-carboxylic acid ((S)-1-hydroxymethyl-3-methyl-butyl)-amide]	> 10	3	

Structure (SMILES)	EC50 (human CB1 receptors) [µM]	EC50 (human CB2 receptors; [1]) [nM]	EC50 (human CB2 receptors) [nM]
O=C(c1ccc(N2CCCC2)c(OCC2CC2)n1)N1CCS(=O)(=O)CC1 [Example 15]	> 10	95.9	
O=C(c1ccc(N2CCCC2)c(OCC2CC2)n1)N1CCSCC1 [Example 16, (6-Cyclopropylmethoxy-5-pyrrolidin-1-yl-pyridin-2-yl)-thiomorpholin-4-yl-methanone]	> 10	16.6	
CC(C)(NC(=O)c1cccc(-c2cccc(Cl)c2)n1)c1nnco1 [Example 17, 6-(3-Chloro-phenyl)-pyridine-2-carboxylic acid (1-methyl-1-[1,3,4]oxadiazol-2-yl-ethyl)-amide]	> 10	566	
O=C(NC1CCCCC1)c1cccc(-c2cccc(Cl)c2)n1 [Example 18, 6-(3-Chloro-phenyl)-pyridine-2-carboxylic acid cyclohexylamide]	> 10	97	
O=C(Nc1ccccc1)c1cccc(-c2cccc(Cl)c2)n1 [Example 19, 6-(3-Chloro-phenyl)-pyridine-2-carboxylic acid phenylamide]	> 10	415	
O=C(Nc1ccccn1)c1cccc(-c2cccc(Cl)c2)n1 [Example 20, 6-(3-Chloro-phenyl)-pyridine-2-carboxylic acid pyridin-2-ylamide]	> 10	262	
O=C(NC1CCOCC1)c1cccc(-c2cccc(Cl)c2)n1 [Example 21, 6-(3-Chloro-phenyl)-pyridine-2-carboxylic acid (tetrahydro-pyran-4-yl)-amide]	> 10	220	
Cc1nsc(C(C)(C)NC(=O)c2cccc(-c3cccc(Cl)c3)n2)n1 [Example 22, 6-(3-Chloro-phenyl)-pyridine-2-carboxylic acid [1-methyl-1-(3-methyl-[1,2,4]thiadiazol-5-yl)-ethyl]-amide]	> 10	635	
CCC(CC)(NC(=O)c1cccc(-c2cccc(Cl)c2)n1)C(=O)N(C)C [Example 23, 6-(3-Chloro-phenyl)-pyridine-2-carboxylic acid (1-dimethylcarbamoyl-1-ethyl-propyl)-amide]	> 10	48.2	
O=C(NN1CCCCC1)c1cccc(C2CCCCC2)n1 [Example 24, 6-Cyclohexyl-pyridine-2-carboxylic acid piperidin-1-ylamide]	> 10	15.6	
Cc1ccc(C(=O)N2CCCCC2)nc1S(=O)(=O)N1CCCCC1 [Example 25, [5-Methyl-6-(piperidine-1-sulfonyl)-pyridin-2-yl]-piperidin-1-yl-methanone]	> 10	291	
CC1CC(NC(=O)c2cccc(-c3cccc(Cl)c3)n2)CCO1 (stereo not shown) [Example 26, 6-(3-Chloro-phenyl)-pyridine-2-carboxylic acid (2-methyl-tetrahydro-pyran-4-yl)-amide]	> 10	691	
COC(=O)C(C)(C)NC(=O)c1ccc(N2CCCC2)c(OCC2CC2)n1 [Example 27, 2-[(6-Cyclopropylmethoxy-5-pyrrolidin-1-yl-pyridine-2-carbonyl)-amino]-2-methyl-propionic acid methyl ester]	> 10	4.6	
Cc1cc(C(C)(C)NC(=O)c2cccc(-c3cccc(Cl)c3)n2)on1 [Example 28, 6-(3-Chloro-phenyl)-pyridine-2-carboxylic acid [1-methyl-1-(3-methyl-isoxazol-5-yl)-ethyl]-amide]	> 10	564	
CCC(CC)(CO)NC(=O)c1cccc(-c2cccc(Cl)c2)n1 [Example 29, 6-(3-Chloro-phenyl)-pyridine-2-carboxylic acid (1-ethyl-1-hydroxymethyl-propyl)-amide]	> 10	324	
O=C(NC1CCCOC1)c1cccc(-c2cccc(Cl)c2)n1 (stereo not shown) [Example 30, 6-(3-Chloro-phenyl)-pyridine-2-carboxylic acid (tetrahydro-pyran-3-yl)-amide]	> 10	658	
O=C(c1ccc(N2CCCC2)c(OCC2CC2)n1)N1CC2(COC2)C1 [Example 31, (6-Cyclopropylmethoxy-5-pyrrolidin-1-yl-pyridin-2-yl)-(2-oxa-6-aza-spiro[3.3]hept-6-yl)-methanone]	> 10	423	

From patent US9290451B2 (Hoffmann-La Roche Inc., priority 2011, dated 2016)
